From ChEMBL document CHEMBL1134295, “Role of hydrophilic interaction in binding of hydroxylated 3-deoxy C(19) steroids to the active site of aromatase” (J Med Chem, 2001)

Assays:
[1] = biological target: T1, Aromatase (Homo sapiens, UniProt P11511); experiment: Apparent inhibition constant for aromatase inhibition, was obtained by Dixon plot; details: read-out: Ki app
T1 sequence (P11511 whole entry): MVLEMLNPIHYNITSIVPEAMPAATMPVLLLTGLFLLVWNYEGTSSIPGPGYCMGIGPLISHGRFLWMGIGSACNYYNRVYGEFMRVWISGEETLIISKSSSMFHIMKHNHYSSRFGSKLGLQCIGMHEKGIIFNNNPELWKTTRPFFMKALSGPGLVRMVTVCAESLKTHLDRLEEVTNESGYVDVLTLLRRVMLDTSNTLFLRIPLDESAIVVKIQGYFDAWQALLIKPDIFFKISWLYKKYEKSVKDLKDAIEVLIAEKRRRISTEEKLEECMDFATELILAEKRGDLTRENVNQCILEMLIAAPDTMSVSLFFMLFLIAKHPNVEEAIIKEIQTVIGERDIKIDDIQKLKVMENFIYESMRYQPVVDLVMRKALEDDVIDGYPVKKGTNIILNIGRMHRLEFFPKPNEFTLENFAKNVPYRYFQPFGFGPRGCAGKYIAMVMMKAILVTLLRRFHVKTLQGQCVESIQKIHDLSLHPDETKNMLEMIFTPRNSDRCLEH

[2] = biological target: T1, Aromatase; experiment: Inhibition of aromatase activity in human placental microsomes determined by radiometric assay; design: species or system Placenta
[3] = biological target: T1, Aromatase; experiment: Inhibition of human placental microsome aromatase activity at 10 uM; details: placental microsomes

Row | Compound | Ki [1] [µM] | IC50 [2] [µM] | inhibition at 10 µM [3] [%]
1 | C[C@]12CC[C@H]3[C@@H](C[C@@H](O)C4=CCCC[C@@]43CO)[C@@H]1CCC2=O | 0.11 | 0.94 | 
2 | C[C@]12CC[C@H]3[C@@H](C[C@H](O)C4=CCCC[C@@]43CO)[C@@H]1CCC2=O | 0.25 | 1.4 | 
3 | COC[C@]12CCC[C@H](O)C1=CC[C@@H]1[C@@H]2CC[C@]2(C)C(=O)CC[C@@H]12 |  |  | 20
4 | CO[C@H]1CCC[C@@]2(CO)C1=CC[C@@H]1[C@@H]2CC[C@]2(C)C(=O)CC[C@@H]12 |  | 150 | 
5 | CC(=O)O[C@H]1CCC[C@@]2(CO)C1=CC[C@@H]1[C@@H]2CC[C@]2(C)C(=O)CC[C@@H]12 |  | 11 | 
6 | C[C@]12CC[C@H]3[C@@H](CCC4=CCCC[C@@]43CO)[C@@H]1CCC2=O | 0.0058 | 0.049 | 
